Measured values reported in paper PMC5131319, “Occurrence, temporal trends, and half-lives of perfluoroalkyl acids (PFAAs) in occupational workers in China” (Scientific Reports, 2016).
“And” between values parts separate entries of the source, which are not always exact repeats. Equal values may be shown once. Read-outs that look alike come from different tables or passages of the source.

Columns and labels:
[1] = parameters: method as in PMID 23980546, PMID 12499116, PMID 20236705; conditions: set value; cited from earlier work
[2] = Half-life estimated by daily clearance rates (first-order model, k = Cltotal/Vd); type: in vivo, human; conditions: for half-life: human, serum and urine, other: occupational exposure
Text: Olsen et al.[21] found linear relationship between the logarithm of serum PFAAs concentration and time, and a first order model was adopted to estimate the half-lives of PFAAs. The elimination of PFAAs in humans was also described with the following equation: […]
If we set C(t) as 1/2C0, then the half-life
where k is the elimination rate constant. We calculated k using two approaches in the present study. In the first approach, k is defined as Cltotal/Vd, where Vd stands for the volume of distribution of PFAAs in the human body. Cltotal represents the total daily PFAAs clearance in the human body; for men and women older than 50, it refers to renal clearance, while for young women, it is defined as the sum of menstrual clearance and renal clearance. To keep consistency with other studies, Vd of PFOS and PFHxS were set at 230 mL kg^−1, and Vd of PFOA was set at 170 mL kg^−1 in this study. In the second approach, k is defined as the average annual decline rates of PFAAs in workers who participated in this study.
We used a first order model to estimate the half-lives of PFAAs in workers (Eq (2)). k was defined as […], where Cltotal referred to renal clearance for men and women older than 50 and to the sum of menstrual clearance and renal clearance for young women. According to Eq (2), the half-lives of PFHxS, PFOA, and PFOS for the occupational workers tested ranged from 0.51–3799 years, 0.44–3663 years, and 0.76–30475 years, with GM and median values of 14.7 and 11.7, 4.1 and 4.0, 32.6 and 21.6 years, respectively (Table 2). […] The GM values of the half-lives of PFHxS, PFOA, and PFOS for men here were 19.9, 4.7, and 60.9 years, respectively, while those for women were 7.5, 3.1, and 8.0 years, respectively. The half-lives estimated by the limited clearance route information could be considered as the upper limits for PFAAs. It seemed likely that the unrealistically long half-life estimates derived from the urinary data were actually evidence of the contribution of fecal elimination to the clearance of these chemicals. The extremely long half-lives of PFAAs, such as 3799 years for PFHxS, 3663 years for PFOA, and 30475 years for PFOS, were caused by the application of LOD/2 instead of ND in workers’ urine samples. The geometric mean or median value of the PFAAs half-lives can better reflect the actual situation.

[3] = Daily renal clearance rate (Clrenal) and serum-to-urine ratio from paired serum and urine; type: in vivo, human; conditions: for Ratio of serum-to-urine concentrations (S/U), GM: all samples; for Clrenal, GM / Clrenal, range: all workers; for Clrenal, range: minimum on the basis of LOD/2; for Renal clearance rate (PFOA): individual workers
Text: The positive correlations between the PFAAs in the serum and the paired urine samples were highly statistically significant, with correlation coefficients of 0.87, 0.64, and 0.72 for PFHxS, PFOA, and PFOS, respectively, (p < 0.01). […] Additionally, the relative abundances of PFOS, PFHxS, and PFOA between the serum and paired urine samples were quite different. The relative abundances in the serum are 64%, 24%, and 12%, respectively, while those in the urine were 19%, 31%, and 40%, respectively. […] Moreover, the ratio of serum-to-urine concentrations (S/U) might be an indicator for PFAA excretion in humans because PFAAs could concentrate in serum while urine excretion is considered an important PFAA elimination pathway. The GM values of S/U for PFHxS, PFOA, and PFOS in all samples were 697, 288, and 1782, respectively, indicating the difficulty in PFAA renal elimination from the workers. To exclude the potential effect of individual differences related to demographic information such as body weight and gender, the daily renal clearance rate (Clrenal) was introduced in the study. Clrenal is a parameter defined in Eq (3) that adjusts the S/U through body weight and the gender-specific daily urine excretion volume.
Paired samples with either concentration under the LOD were set as LOD/2 in the Clrenal study. The urine excretion volumes of males and females were set at 1.4 and 1.2 L/day in the study, respectively, and the body weight values of individual workers were obtained from our questionnaires. The calculated Clrenal values for PFHxS, PFOA, PFOS ranged from 2.0 × 10^−4 to 2.3, 9.0 × 10^−5 to 2.4, and 5.0 × 10^−5 to 0.54 mL day^−1 kg^−1 with GM values of 0.023, 0.067 and 0.010 mL day^−1 kg^−1, respectively (Fig. 3). The minimum values of the PFAAs Clrenal were calculated on the basis of LOD/2 instead of ND (not detected) in the present study. […] However, Zhang et al. observed that the Clrenal of PFHxS was the lowest among these 3 type of PFAAs[28]. The median Clrenal of PFAAs in the present study was similar to that of Zhou et al.’s study (0.012 mL day^−1 kg^−1 for PFHxS, 0.061 mL day^−1 kg^−1 for PFOA, and 0.010 mL day^−1 kg^−1 for PFOS)[39]. In contrast, as noted elsewhere, the Clrenal values of PFOA were the highest among those of the three PFAAs[28][38]. The most recent study on the elevated serum concentrations of PFAAs in fishery employees from Tangxun Lake also stated that the median Clrenal of PFOA (0.061 mL day^−1 kg^−1) was higher than those of the PFHxS and PFOS (0.012 and 0.010 mL day^−1 kg^−1)[39]. […] Moreover, the renal clearance rates of PFAAs in humans were not obviously influenced by the PFAAs level in the serum. […] In addition, gender could not be discounted. The Clrenal values of PFOS for the male workers were significant lower than those for the females (p < 0.01). Wong et al. studied the elimination rate constant of PFOS in a USA population and speculated that there might be other sex-specific elimination routes other than menstruation between men and women. No significant differences were found between the Clrenal values of PFOA and PFHxS for the males and females tested in the study.

[4] = cited from earlier work; for Half-life (GM): retired fluorochemical production workers
[5] = cited from earlier work
[6] = Female workers, number 71, menstrual clearance added to renal clearance
[7] = Male workers, number 136, renal clearance
[8] = both sexes, Total workers, number 207, read-out: Half-life estimated through daily elimination, GM (converted)
[9] = both sexes, Total workers, number 207, read-out: Half-life estimated through daily elimination, Median (converted)
[10] = female, Female workers, number 71, menstrual clearance added to renal clearance, read-out: Half-life estimated through daily elimination, GM (converted)
[11] = male, Male workers, number 136, renal clearance, read-out: Half-life estimated through daily elimination, Median (converted)

Row | Structure (SMILES) | Vd (volume of distribution in the human body) [1] | Half-life estimated through daily elimination, Max [2, 6] | Half-life estimated through daily elimination, Min [2, 6] | Half-life estimated through daily elimination, Min [2, 7] | Half-life estimated through daily elimination, Min ([2]; Total workers, number 207) | half-life [2, 8] | half-life [2, 9] | half-life [2, 10] | half-life [2, 11] | Ratio of serum-to-urine concentrations (S/U), GM [3] | Clrenal, GM [3] | Clrenal, range [3] | Shortest half-life in humans reported in previous studies [4] | Half-life (GM) [4] | other results
1 | O=S(=O)(O)C(F)(F)C(F)(F)C(F)(F)C(F)(F)C(F)(F)C(F)(F)F [PFHxS, perfluorohexane sulfonate] | 0.23 L/kg | 15.1 years | 2.8 years | 0.51 years | 0.51 years | 5370 days | 4270 days | 2740 days | 5300 days | 697 | 0.023 mL/day/kg | 2.0 × 10^−4 to 2.3 mL day^−1 kg^−1 | 7.3 years | 7.3 years | half-life ([2]; female, Female workers, number 71, menstrual clearance added to renal clearance, read-out: Half-life estimated through daily elimination, Median (converted)): 2780 days; Half-life based on serum concentrations ([4]; humans): more than 5 years; Half-life by daily clearance (GM) ([4]; young females): 7.8 years; Serum concentration, median ([5]; workers in another fluorochemical plant in China): 0.98 ng/mL
2 | O=C(O)C(F)(F)C(F)(F)C(F)(F)C(F)(F)C(F)(F)C(F)(F)C(F)(F)F [PFOA, perfluorooctanoic acid] | 0.17 L/kg | 11.1 years | 0.44 years | 0.48 years | 0.44 years | 1500 days | 1460 days | 1130 days | 1610 days | 288 | 0.067 mL/day/kg | 9.0 × 10^−5 to 2.4 mL day^−1 kg^−1 | 1.2 years | 3.5 years | Half-life estimated through daily elimination, Median [2, 6]: 2.8 years; half-life ([2]; male, Male workers, number 136, renal clearance, read-out: Half-life estimated through daily elimination, GM (converted)): 1720 days; Renal clearance rate (PFOA) ([3]; sampling year 2008): 0.093 mL/day/kg and 0.043 mL/day/kg and 0.141 mL/day/kg and 0.074 mL/day/kg and 0.069 mL/day/kg and 0.087 mL/day/kg and 0.012 mL/day/kg and 0.060 mL/day/kg and 0.127 mL/day/kg and 0.027 mL/day/kg and 0.068 mL/day/kg and 0.030 mL/day/kg and 0.111 mL/day/kg and 0.033 mL/day/kg and 0.047 mL/day/kg and 0.161 mL/day/kg and 0.052 mL/day/kg and 0.214 mL/day/kg and 0.096 mL/day/kg and 0.055 mL/day/kg and 0.042 mL/day/kg and 0.106 mL/day/kg and 0.021 mL/day/kg and 0.157 mL/day/kg and 0.058 mL/day/kg and 0.034 mL/day/kg; Renal clearance rate (PFOA) ([3]; sampling year 2009): 0.174 mL/day/kg and 0.318 mL/day/kg and 0.286 mL/day/kg and 0.110 mL/day/kg and 0.366 mL/day/kg and 0.046 mL/day/kg and 0.403 mL/day/kg and 0.070 mL/day/kg and 0.128 mL/day/kg and 0.090 mL/day/kg and 0.114 mL/day/kg and 0.071 mL/day/kg and 0.289 mL/day/kg and 0.235 mL/day/kg and 0.096 mL/day/kg and 0.264 mL/day/kg and 0.117 mL/day/kg and 0.057 mL/day/kg and 0.051 mL/day/kg and 0.262 mL/day/kg and 0.197 mL/day/kg and 0.077 mL/day/kg and 0.363 mL/day/kg; Renal clearance rate (PFOA) ([3]; sampling year 2011): 0.101 mL/day/kg and 0.205 mL/day/kg and 0.124 mL/day/kg and 0.077 mL/day/kg and 0.096 mL/day/kg and 0.081 mL/day/kg and 0.014 mL/day/kg and 0.080 mL/day/kg and 0.027 mL/day/kg and 0.082 mL/day/kg and 0.120 mL/day/kg and 0.066 mL/day/kg and 0.057 mL/day/kg and 0.037 mL/day/kg and 0.063 mL/day/kg and 0.270 mL/day/kg and 0.075 mL/day/kg and 0.060 mL/day/kg and 0.085 mL/day/kg and 0.181 mL/day/kg and 0.107 mL/day/kg and 0.258 mL/day/kg and 0.674 mL/day/kg and 0.290 mL/day/kg and 0.300 mL/day/kg and 0.058 mL/day/kg; Renal clearance rate (PFOA) ([3]; sampling year 2012): 0.089 mL/day/kg and 0.052 mL/day/kg and 0.038 mL/day/kg and 0.045 mL/day/kg and 0.082 mL/day/kg and 0.114 mL/day/kg and 0.012 mL/day/kg and 0.044 mL/day/kg and 0.098 mL/day/kg and 0.049 mL/day/kg and 0.030 mL/day/kg and 0.027 mL/day/kg and 0.029 mL/day/kg and 0.054 mL/day/kg and 0.033 mL/day/kg and 0.199 mL/day/kg and 0.105 mL/day/kg and 0.069 mL/day/kg and 0.236 mL/day/kg and 0.139 mL/day/kg and 0.040 mL/day/kg and 0.084 mL/day/kg and 0.170 mL/day/kg; Serum concentration, geometric mean ([5]; occupational workers of Wang et al.): 1272 ng/mL; Serum concentration, geometric mean ([5]; workers of the 3 M Company): 1130 ng/mL
